Like-named read-outs stand apart in the source and are kept apart here.
How the values were obtained:
[1] = test system: Enterococcus faecium E417-HM-965; assay: MIC of CAIs in BHIB and TSB; format: cell-based; conditions: Enterococcus faecium, read-out: MIC
Procedure: (§1) The minimum inhibitory concentrations (MICs) of CAIs were tested against clinical isolates of vancomycin sensitive and vancomycin resistant Enterococci strains as per the guidelines provided by the Clinical and Laboratory Standards Institute (CLSI). The selected strains of Enterococci were streaked on Tryptic Soy Agar (TSA) plates and let grow for 24 hours at 37° C. Afterwards, a bacterial solution equivalent to 0.5 McFarland standard was prepared and diluted in tryptone soy broth (TSB) or brain heart infusion broth (BHIB) to achieve a bacterial concentration of about 5×10^5 CFU/mL and seeded in 96-well well plates. Compounds and control drugs were added in the first row of the 96-well plates and serially diluted along the plates. Plates were then incubated aerobically at 37° C. for 18-20 hours. MICs reported in Table 5 are the minimum concentration of the compounds/control drugs that could inhibit completely the visual growth of the bacteria.

[2] = test system: Enterococcus faecium Patient #2-1-NR-31909; assay: MIC of CAIs in BHIB and TSB; format: cell-based; conditions: Enterococcus faecium, read-out: MIC
Procedure: as §1

[3] = test system: Enterococcus fecalis Strain SF 24397 NR31970; assay: MIC of CAIs in BHIB and TSB; format: cell-based; conditions: Enterococcus, read-out: MIC
Procedure: as §1

[4] = test system: Enterococcus faecalis—S613 HM-334; assay: MIC of CAIs in BHIB and TSB; format: cell-based; conditions: Enterococcus, read-out: MIC
Procedure: as §1, with “bacteria. The MIC values of CAIs against the tested VRE strains were higher in BHIB than in TSB. This may be due to binding of these drugs to proteins. […] They inhibited the VRE strains at MIC values ranging from 1 to 4 μg/mL.” for “bacteria.”

[5] = test system: vancomycin-resistant E. faecium; assay: Mouse model of GI colonization by VRE; format: in vivo, C57BL/6 mice
From the text: Feasibility in vivo study: AZM reduces VRE load in the intestines and faeces. The promising feature, and the specific and potent antimicrobial activity of CAIs, prompted us to evaluate the in vivo efficacy of AZM in our established mouse model of GI colonization by enterococci with features that mimic the antibiotic-induced enterococcal expansion observed in humans (Mohammad, H. et al., Int J Antimicrob Agents 2018, 51, 897-904; Abdelkhalek, A, et al., PLoS One 2018, 13, e0199710). We tested AZM (two clinical doses 10 and 20 mg/kg) in female 12-week-old C57BL/6 mice (n=5 mice per group) that were sensitized with ampicillin ([…] in drinking water) for 7 days to reduce the microbiota present in the gastrointestinal tract and colonized with 10^8 CFU/mL of vancomycin-resistant E. faecium.
We thought that the rapid absorption of AZM from the gastrointestinal tract would limit their exposure time to VRE present in the gastrointestinal tract.
Mice were treated for 8 days with 10 mg/kg of drugs by oral gavage.

[6] = test system: E. faecium NR 31909; conditions: oral 20 mg/kg daily for 4 days
From the text: Saline was used as a negative control. Mice were euthanized on day 5 and organs (liver, spleen and kidneys) were aseptically removed and homogenized, and viable VRE were enumerated by serial dilution and plating.

[7] = cited from earlier work
[8] = cited from earlier work; remark: listed apart in the source

CC(=O)Nc1nnc(S(N)(=O)=O)s1 [Acetazolamide, reference compound]
MIC ([1]; E417HM965, BHIB): 8 µg/mL
MIC ([1]; E417HM965, TSB, Table 5): 2 µg/mL
MIC ([2]; BHIB): 64 µg/mL
MIC ([2]; TSB, Table 5): 2 µg/mL
MIC ([3]; BHIB): > 128 µg/mL
MIC ([3]; TSB, Table 5): 2 µg/mL
MIC ([4]; BHIIB): > 128 µg/mL
MIC ([4]; TSB, Table 5): 2 µg/mL
VRE decolonization compared with linezolid ([5]; AZM 10 and 20 mg/kg, linezolid 10 mg/kg once daily for 8 days): outperformed linezolid
VRE in feces, cecal content and ileal content compared to control mice ([5]; once a day at 10 mg/kg or 20 mg/kg, feces as early as 3rd day): significant reduction
mice protected against a lethal dose (survival) ([6]; from two hours after challenge): 100%
reduction of bacterial load in internal organs ([6]; liver, spleen, kidneys on day 5): superior to linezolid
time to peak plasma concentrations ([7]; after oral administration): 1 to 3 h
serum concentration ([7]; after single oral dose): 20000 to 100000 ng/mL
oral LD50 (mouse) [8]: 4300 mg/kg

CC(=O)NC[C@H]1CN(c2ccc(N3CCOCC3)c(F)c2)C(=O)O1 [Linezolid, reference compound]
MIC ([3]; TSB, Table 5): 1 µg/mL
MIC ([4]; BHIIB): 1 µg/mL
MIC ([4]; TSB, Table 5): 1 µg/mL

Reference: patent US12378211B2, “Carbonic anhydrase inhibitors and antibiotics against multidrug resistant bacteria” (Purdue Research Foundation, priority 2018, dated 2025)
